Patent US7488832B2, “Azolylacylguanidines as β-secretase inhibitors” (Wyeth, priority 2005, dated 2009)

Target: human BACE1 (Homo sapiens, UniProt P56817)
Test: Fluorescent kinetic assay, human BACE1 (FRET peptide substrate WABC-6);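 also: fluorescence monitored at excitation 320 nm and emission 420 nm over 30 min, with the substrate cleavage rate taken as the linear slope of the signal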
Type: biochemical
Details: not given

Chain of human BACE1 (P56817 46-501): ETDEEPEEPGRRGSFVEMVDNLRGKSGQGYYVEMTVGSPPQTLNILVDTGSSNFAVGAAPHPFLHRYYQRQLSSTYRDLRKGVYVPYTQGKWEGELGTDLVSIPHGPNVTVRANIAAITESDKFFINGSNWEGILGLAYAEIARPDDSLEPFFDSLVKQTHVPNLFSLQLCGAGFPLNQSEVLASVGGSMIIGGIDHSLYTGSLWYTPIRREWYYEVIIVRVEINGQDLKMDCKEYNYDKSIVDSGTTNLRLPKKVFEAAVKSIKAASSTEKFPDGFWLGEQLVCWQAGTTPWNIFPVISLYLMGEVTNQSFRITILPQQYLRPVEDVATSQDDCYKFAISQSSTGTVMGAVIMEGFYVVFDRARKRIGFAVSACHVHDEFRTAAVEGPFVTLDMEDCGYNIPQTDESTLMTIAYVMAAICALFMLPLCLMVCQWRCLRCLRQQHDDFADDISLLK

IC50 | Compound
0.11 to 1 µM | N=C(NCc1cccc(N)c1)NC(=O)Cn1c(-c2ccccc2)ccc1C12CC3CC(CC(C3)C1)C2 [Example 421]

Same assay, conditions: fluorescent kinetic assay, 25 μM substrate WABC-6, pH 4.5, room temperature; read-out: IC50 (μM) BACE 1

IC50 | Compound
0.11 to 1 µM | NC(=NC(=O)Cn1c(-c2ccccc2)ccc1C12CC3CC(CC(C3)C1)C2)NCC(F)(F)C(F)(F)F [Example 416]
1.1 to 5 µM | CC[C@H](C)COc1ccc(-c2ccc(-c3ccccc3)n2CC(=O)N=C(N)N)cc1 [Example 283]
0.11 to 1 µM | C=CCN(C)C(=O)c1ccc(-c2ccc(-c3ccccc3)n2CC(=O)N=C(N)NCCCO)cc1 [Example 470]
1.1 to 5 µM | COc1cccc(-c2ccc(-c3ccc4ccccc4c3)n2CC(=O)N=C(N)N)c1 [Example 147]
0.11 to 1 µM | COc1ccc(OC)c(-c2ccc(-c3ccc(Oc4ccc(C(C)=O)cc4)cc3)n2CC(=O)N=C(N)N)c1 [Example 135]
1.1 to 5 µM | NC(N)=NC(=O)Cn1c(-c2ccccc2)ccc1-c1ccc(NC(=O)COc2ccccc2)cc1 [Example 242]
0.11 to 1 µM | N#CCCNC(=O)c1ccc(-c2ccc(-c3ccccc3)n2CC(=O)N=C(N)NCCCO)cc1 [Example 465]
0.11 to 1 µM | CCCCc1ccc(-c2ccc(-c3ccccc3)n2CC(=O)NC(=N)N)cc1 [Example 449]
0.11 to 1 µM | NC(=NC(=O)Cn1c(-c2ccccc2)ccc1-c1ccc(C(=O)NCCO)cc1)NCCCO [Example 464]
0.11 to 1 µM | CC(C)c1ccc(-c2ccc(-c3ccccc3)n2CC(=O)N=C(N)NCCCO)cc1 [Example 319]
1.1 to 5 µM | Cc1cccc(C(=O)Nc2ccc(-c3ccc(-c4ccccc4)n3CC(=O)N=C(N)N)cc2)c1 [Example 236]
0.11 to 1 µM | CCCCCOc1ccc(-c2ccc(-c3ccccc3Cl)n2CC(=O)/N=C(/N)NCCCO)cc1 [Example 317]
1.1 to 5 µM | N#CCc1ccc(-c2ccc(-c3ccccc3)n2CC(=O)NC(=N)N)cc1 [Example 451]
0.11 to 1 µM | CCN/C(N)=N\C(=O)Cn1c(-c2ccccc2)ccc1C12CC3CC(CC(C3)C1)C2 [Example 390]
0.11 to 1 µM | C=CCNC(=O)c1ccc(-c2ccc(-c3ccccc3)n2CC(=O)N=C(N)NCc2nc(C)cs2)cc1 [Example 424]
1.1 to 5 µM | N#CCc1cccc(-c2ccc(-c3ccccc3)n2CC(=O)NC(=N)N)c1 [Example 453]
0.11 to 1 µM | N/C(=N/C(=O)Cn1c(-c2ccc(OCCC3OCCO3)cc2)ccc1-c1ccccc1Cl)NCCCO [Example 316]
0.11 to 1 µM | NC(=NC(=O)Cn1c(-c2ccccc2)ccc1C12CC3CC(CC(C3)C1)C2)NC1CCCCCC1 [Example 417]
0.11 to 1 µM | N=C(NCC(O)CO)NC(=O)Cn1c(-c2ccccc2)ccc1C12CC3CC(CC(C3)C1)C2 (centres unmarked) [Example 406]
1.1 to 5 µM | NC(=NC(=O)Cn1c(-c2ccccc2)ccc1C12CC3CC(CC(C3)C1)C2)NCc1ccco1 [Example 401]
0.11 to 1 µM | C=CCNC(=O)c1ccc(-c2ccc(-c3ccccc3)n2CC(=O)N=C(N)NCc2nnc(C)o2)cc1 [Example 423]
1.1 to 5 µM | N=C(NCCCn1ccnc1)NC(=O)Cn1c(-c2ccccc2)ccc1C12CC3CC(CC(C3)C1)C2 [Example 413]
1.1 to 5 µM | CCOC(=O)CCCNC(N)=NC(=O)Cn1c(-c2ccccc2)ccc1C12CC3CC(CC(C3)C1)C2 [Example 409]
0.11 to 1 µM | C=CCCCCOc1ccc(-c2ccc(-c3ccccc3Cl)n2CC(=O)N=C(N)NCCCO)cc1 [Example 315]
1.1 to 5 µM | COc1ccc(OC)c(-c2ccc(-c3ccc(Oc4ccccc4)cc3)n2CC(=O)N=C(N)N)c1 [Example 133]
0.11 to 1 µM | NC(=NC(=O)Cn1c(-c2ccccc2)ccc1C12CC3CC(CC(C3)C1)C2)NCC1CCCO1 (centres unmarked) [Example 402]
0.11 to 1 µM | CCCN/C(N)=N\C(=O)Cn1c(-c2ccccc2)ccc1C12CC3CC(CC(C3)C1)C2 [Example 391]
0.11 to 1 µM | NC(=NC(=O)Cn1c(-c2ccccc2)ccc1-c1ccc(C(=O)NC2CC2)cc1)NCCCO [Example 462]
0.11 to 1 µM | NC(=NC(=O)Cn1c(-c2ccccc2)ccc1-c1ccc(-c2ccccc2)cc1)NCCCO [Example 325]

More lines, now with the values behind:

Compound | IC50
N/C(=N\C(=O)Cn1c(-c2ccccc2)ccc1C12CC3CC(CC(C3)C1)C2)NCCCCO [Example 400, 2-[2-(1-Adamantyl)-5-phenyl-1H-pyrrol-1-yl]-N-{(1E)-amino[(4-hydroxybutyl)amino]-methylene}acetamide] | 0.11 to 1 µM
NC(N)=NC(=O)Cn1c(-c2ccccc2)ccc1-c1ccc(NS(=O)(=O)c2ccc(Cl)s2)cc1 [Example 258] | 1.1 to 5 µM
NC(=NC(=O)Cn1c(-c2ccccc2)ccc1-c1ccc(Oc2ccccc2)cc1)NCc1ccc(F)c(F)c1F [Example 337] | 0.11 to 1 µM
CC(=O)c1ccc(Oc2ccc(-c3ccc(-c4ccccc4)n3CC(=O)N=C(N)NCCCO)cc2)cc1 [Example 329] | 0.11 to 1 µM
CC(C)Cc1ccc(-c2ccc(-c3ccccc3)n2CC(=O)N=C(N)NCCCO)cc1 [Example 322] | 0.11 to 1 µM
CCCCCN/C(N)=N\C(=O)Cn1c(-c2ccccc2)ccc1C12CC3CC(CC(C3)C1)C2 [Example 392] | 1.1 to 5 µM
NC(=NC(=O)Cn1c(-c2ccccc2)ccc1-c1ccc(C2CCCCC2)cc1)NCCCO [Example 327] | 0.11 to 1 µM
C=CCNC(=O)c1ccc(-c2ccc(-c3ccccc3)n2CC(=O)N=C(N)NCCCO)cc1 [Example 463] | 0.11 to 1 µM
4-n-propyl-piperidine [Example 185] | 1.1 to 5 µM
NC(=NC(=O)Cn1c(-c2ccccc2)ccc1-c1ccc(Oc2ccccc2)cc1)NCCCO [Example 328] | 0.11 to 1 µM
COCCNC(N)=NC(=O)Cn1c(-c2ccccc2)ccc1C12CC3CC(CC(C3)C1)C2 [Example 415] | 0.11 to 1 µM
N/C(=N/C(=O)Cn1c(-c2ccccc2)ccc1C12CC3CC(CC(C3)C1)C2)NCCO [Example 396, 2-[2-(1-adamantyl)-5-phenyl-1H-pyrrol-1-yl]-N-{(1E)-amino[(2-hydroxyethyl)-amino]methylene}acetamide] | 0.11 to 1 µM
C=CCCCOc1ccc(-c2ccc(-c3ccccc3Cl)n2CC(=O)NC(=N)NCCCO)cc1 [Example 313] | 0.11 to 1 µM
NC(=NC(=O)Cn1c(-c2ccc(Oc3ccccc3)cc2)ccc1-c1ccccc1Cl)NCCCO [Example 310] | 0.11 to 1 µM
N#CCCN/C(N)=N\C(=O)Cn1c(-c2ccccc2)ccc1C12CC3CC(CC(C3)C1)C2 [Example 397] | 0.11 to 1 µM
CC(=O)c1ccc(Oc2ccc(-c3ccc(-c4ccccc4)n3CC(=O)N=C(N)NCc3ccc(F)c(F)c3F)cc2)cc1 [Example 338] | 1.1 to 5 µM
N#CCCCNC(=N)NC(=O)Cn1c(-c2ccccc2)ccc1C1CCCCC1 [Example 474, N-(3-Cyano-propyl)-N′-[2-(2-cyclohexyl-5-phenyl-pyrrol-1-yl)-acetyl]-guanidine] | 1.1 to 5 µM
Cc1ccc(C)c(-c2ccc(-c3ccccc3)n2CC(=O)NC(=N)N)c1 [Example 450] | 0.11 to 1 µM
NC(=NC(=O)Cn1c(-c2ccccc2)ccc1-c1ccc(C2CCCCC2)cc1)NCc1ccc(F)c(F)c1F [Example 336] | 0.11 to 1 µM
C=CCNC(=O)c1ccc(-c2ccc(-c3ccccc3)n2CC(=O)N=C(N)NCCc2cccs2)cc1 [Example 425] | 0.11 to 1 µM
CCCCc1ccc(-c2ccc(-c3ccccc3)n2CC(=O)N=C(N)NCc2ccc(F)c(F)c2F)cc1 [Example 333] | 0.11 to 1 µM
CC1CCN(C(=O)c2ccc(-c3ccc(-c4ccccc4)n3CC(=O)N=C(N)N)cc2)CC1 [Example 170] | 1.1 to 5 µM
N#CCCc1ccc(-c2ccc(-c3ccccc3)n2CC(=O)NC(=N)N)cc1 [Example 454] | 1.1 to 5 µM
